Where “and” joins values, the source holds several entries; their conditions need not be identical. Equal values may be shown once. Read-outs that look alike come from different tables or passages of the source.
How the values were obtained:
[1] = system: HCT 116; test: HCT 116 human colon cancer xenograft model; format: in vivo, SCID mice; details: 25 mg/Kg (M-F)
Description: (§1) All experiments were carried out using male or female 6-8 week old SCID Hsd:ICR(CD-1) mice (Harlan, Indianapolis, Ind.). A-549 cells were harvested, resuspended in DMEM minus serum, and injected subcutaneously into the right flanks (4×10^6 cells/flank in a 300 μL volume). HCT 116 cells were harvested, resuspended in McCoy's 5A minus serum, and injected subcutaneously into the right and left flanks (5×10^6 cells/flank in a 300 μL volume). Tumor volumes were determined by measuring the length (1) and the width (w) and calculating the volume (V=1 w^2/2). Depending on the study, the tumors were between about 150 mm^3-about 800 mm^3 at the time of animal randomization into treatment groups (n=8-10 mice per group).
(§2) Control animals received 200 μL injections of vehicle only.
(§3) Evaluation of the results included statistical analysis of differences in tumor size between test and control groups at the end of each treatment period. Group means were compared using a one-way ANOVA. If the ANOVA was significant, i.e., p≦0.05, a Dunnett's multiple comparison test was used to determine which groups were different. Only animals surviving to the completion of the treatment period were included in the analysis.

[2] = cited from earlier work
[3] = system: A549 human lung tumor xenografts; test: A549 human lung tumor xenograft model; format: in vivo, SCID mice; details: for Reduction in Tumor Volume (% decrease relative to control), positive control: 20 mg/Kg (M, W, F); for Reduction in Tumor Volume (% decrease relative to control), positive control / Tumor volume compared to control animals, single agent alone: 2 week treatment; for Tumor volume compared to control animals, single agent alone: female SCID mice
Description: as §1, §2, §3
(§4) A549 cells were injected subcutaneously into female SCID mice and the tumor volumes were allowed to reach about 400 mm^3 prior to animal randomization. Animals were administered one of the above combinations or saline vehicle control intraperitoneally five times per week (each day, Monday through Friday) for two weeks.
as §4, with “male” for “female”, “drug combination” for “one of the above combinations”, “or” for “or saline”, “for three weeks. Treatment was stopped for a one week recovery period, then continued as before for an additional” for “for”

[4] = gastrointestinal tract; cited from earlier work
[5] = mouse, in vivo
Description: Unless otherwise stated, drugs were administered daily Monday to Friday. Paclitaxel was administered 3 days per week, Monday, Wednesday, and Friday only. All drugs were administered by intraperitoneal injection in a volume of 100 μL/25 grams. Animals undergoing combination therapy received two individual injections for a total of 200 μL per mouse. Control animals received 200 μL injections of vehicle only.

[6] = system: phosphatases of regenerating liver (PRL); details: cited from earlier work
[7] = system: endo-exonuclease; details: PCT Publication No. WO 01/35935; cited from earlier work
[8] = mice, single intraperitoneal injection 10 mg/kg; cited from earlier work
[9] = target: T1, protein tyrosine phosphatase 1B (PTP1B) (Homo sapiens, UniProt P18031); details: cited from earlier work
T1 sequence (P18031 1-435): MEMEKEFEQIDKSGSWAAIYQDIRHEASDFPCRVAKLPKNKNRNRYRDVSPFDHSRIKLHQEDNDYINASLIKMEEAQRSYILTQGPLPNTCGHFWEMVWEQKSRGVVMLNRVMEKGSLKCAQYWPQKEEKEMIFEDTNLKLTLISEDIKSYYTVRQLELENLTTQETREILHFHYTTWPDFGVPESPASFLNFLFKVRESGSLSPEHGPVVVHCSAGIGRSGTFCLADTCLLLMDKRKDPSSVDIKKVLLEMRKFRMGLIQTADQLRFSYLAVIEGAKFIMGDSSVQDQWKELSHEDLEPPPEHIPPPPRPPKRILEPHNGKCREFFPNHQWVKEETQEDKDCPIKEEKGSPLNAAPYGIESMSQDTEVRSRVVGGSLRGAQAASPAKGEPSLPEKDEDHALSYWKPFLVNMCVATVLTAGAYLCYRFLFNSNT

O=c1[nH]cc(F)c(=O)[nH]1 [5-FU, 5-fluorouracil]
Reduction in Tumor Volume (% decrease relative to control), positive control [1]: 47%

N=C(N)c1ccc(OCCCCCOc2ccc(C(=N)N)cc2)cc1 [Pentamidine isethionate, 4,4′-diamidino-diphenoxypentane di(β-hydroxyethanesulfonate)]
Solubility ([2]; ether, acetone, and chloroform): insoluble
Solubility ([2]; water and glycerin): soluble

CC(=O)O[C@H]1C(=O)[C@@]2(C)[C@H]([C@H](OC(=O)c3ccccc3)[C@]3(O)C[C@H](OC(=O)[C@H](O)[C@@H](NC(=O)c4ccccc4)c4ccccc4)C(C)=C1C3(C)C)[C@]1(OC(C)=O)CO[C@@H]1C[C@@H]2O [Taxol, paclitaxel]
Reduction in Tumor Volume (% decrease relative to control), positive control [3]: 24% and 29%
Reduction in Tumor Volume (% decrease relative to control), positive control ([3]; listed as paclitaxel): 24%
Tumor volume less than vehicle control ([3]; 20 mg/Kg, end of first treatment period (3 weeks), male SCID mice): 27%

CN(C)CCCN1c2ccccc2Sc2ccc(Cl)cc21 [chlorpromazine]
Tumor volume compared to control animals, single agent alone [3]: no decrease in tumor volumes
Absorption [4]: readily absorbed
Time to sedation after administration ([5]; SCID Hsd:ICR(CD-1), ip): ≤ 10 min
Sedation and hypothermia at lower doses [5]: reduced period of sedation and associated hypothermia

N=C(N)c1ccc(OCCCCCOc2ccc(C(=N)N)cc2)cc1 [pentamidine]
Tumor volume compared to control animals, single agent alone [3]: no decrease in tumor volumes
Inhibition of PRL [6]: potent inhibitor
Inhibition of endo-exonuclease activity [7]: inhibit the activity
Tissue distribution [8]: concentration in the kidneys was the highest, followed by that in the liver
Inhibition of PTP1B [9]: effective inhibitor
